In patent US20230329236A1, “HERBICIDAL PYRIMIDINE DERIVATIVES” (MoA Technology Limited, priority 2020, published 2023):

Tests used:
Details in all cases: 336 h, Table 3, post-emergence, 14±1 days post application
[1] = system: Lolium multiflorum (LOLMU); assay: Post-emergence glasshouse test, visual injury, LOLMU; format: in vivo
Experimental: (§1) Seeds of a variety of test species are grown in a sandy loam soil mixture, Lolium multiflorum (LOLMU), Amaranthus retroflexus (AMARE), Echinochloa crus-gaffi (ECHCG), Veronica persica (VERPE), Glycine max (GLXMA), Oryza sativa (ORYSA), Zea mays (ZEAMX), spring wheat (TRZAS), Ipomoea hederacea (IPOHE), Ipomoea purpurea (PHBPU), Stellaria media (STEME), Solanum nigrum (SOLNI), Digitaria sanguinalis (DIGSA), Setaria italica (SETIT), Alopecurus myosuroides (ALOMY) and Avena fatua (AVEFA).
(§2) After sowing, at growth stage BBCH 12-14 (post-emergence), the plants are sprayed with an aqueous spray solution derived from the formulation of the technical active ingredient in acetone/water (50:50) solution containing 0.5% Tween 20 (polyoxyethlyene sorbitan monolaureate, CAS RN 9005-64-5). The test compounds are applied at the required concentration of active ingredient in g/ha. The test plants are then grown in a glasshouse under controlled environmental conditions and watered regularly as required. After 14±1 days post application (for post-emergence test), the test is evaluated by assessing the percentage damage caused to the plants in comparison with the untreated plots. The biological activities for post-emergence testing are shown below (Table 3 and Table 4) as a % visual injury.

Veronica persica (VERPE) = assay: Post-emergence glasshouse test, visual injury, VERPE; format: in vivo
Experimental: as §1, §2

[2] = system: Echinochloa crus-gaffi (ECHCG); assay: Post-emergence glasshouse test, visual injury, ECHCG; format: in vivo, Echinochloa crus-galli
Experimental: as §1, §2

[3] = system: Amaranthus retroflexus (AMARE); assay: Post-emergence glasshouse test, visual injury, AMARE; format: in vivo
Experimental: as §1, §2

Row | SMILES | pest or weed control at 125 g/ha [1] | pest or weed control at 125 g/ha (Veronica persica (VERPE)) | pest or weed control at 125 g/ha [2] | pest or weed control at 125 g/ha [3] | pest or weed control at 500 g/ha [1] | pest or weed control at 500 g/ha (Veronica persica (VERPE)) | pest or weed control at 500 g/ha [2] | pest or weed control at 500 g/ha [3] | other results
1 | Cc1cc(-c2cnc(NC(C)C)nc2C(C)C)on1 [Compound 83] | 40% | 70% | 70% | 95% |  |  |  |  | pest or weed control at 250 g/ha [1]: 50%; pest or weed control at 250 g/ha (Veronica persica (VERPE)): 100%; pest or weed control at 250 g/ha [2]: 100%; pest or weed control at 250 g/ha [3]: 98%
2 | Cc1cc(-c2cnc(NC3CCOCC3)nc2C(F)(F)F)on1 [Compound 116] | 0% | 95% | 0% | 0% |  |  |  |  | 
3 | Cc1cc(-c2cnc(N3CCCCC3)nc2-c2ccc(C)o2)on1 [Compound 79] |  |  |  |  | 30% | 0% | 60% | 90% | 
4 | Cc1cc(-c2cnc(NCc3ccc(F)cn3)nc2C(C)C)on1 [Compound 96] |  |  |  |  |  |  |  |  | pest or weed control at 62 g/ha [1]: 0%; pest or weed control at 62 g/ha (Veronica persica (VERPE)): 50%; pest or weed control at 62 g/ha [2]: 40%; pest or weed control at 62 g/ha [3]: 50%
5 | Cc1cc(-c2cnc(NCc3ccccn3)nc2C2CC2)on1 [Compound 67] |  |  |  |  | 20% | 50% | 40% | 60% | 
6 | COc1ccc(CCNc2ncc(-c3cc(C)no3)c(C3CC3)n2)cc1OC [Compound 78] |  |  |  |  | 40% | 99% | 80% | 95% | 
7 | Cc1cc(-c2cnc(NCc3cccc(F)c3)nc2C(F)(F)F)on1 [Compound 126] | 0% | 100% | 70% | 95% |  |  |  |  | 
8 | Cc1cc(-c2cnc(N3CCC(C(N)=O)CC3)nc2C(C)(C)C)on1 [Compound 26] |  |  |  |  | 0% | 60% | 30% | 0% | 
9 | Cc1cc(-c2cnc(NCc3ccccc3F)nc2C2CC2)on1 [Compound 81] |  |  |  |  | 30% | 80% | 80% | 98% | 
10 | Cc1cc(-c2cnc(NCc3cccnc3)nc2C(C)C)on1 [Compound 28] |  |  |  |  | 0% | 98% | 70% | 90% | 
11 | Cc1cc(-c2cnc(NCc3ccccc3Cl)nc2C(C)C)on1 [Compound 101] |  |  |  |  |  |  |  |  | pest or weed control at 62 g/ha [1]: 0%; pest or weed control at 62 g/ha (Veronica persica (VERPE)): 40%; pest or weed control at 62 g/ha [2]: 70%; pest or weed control at 62 g/ha [3]: 50%
12 | Cc1cc(-c2cnc(NC3CCCC3)nc2C(F)(F)F)on1 [Compound 91] | 80% | 99% | 95% | 90% |  |  |  |  | 
13 | CC(C)c1nc(NC2CCCC2)ncc1-c1cncs1 [Compound 124] |  |  |  |  |  |  |  |  | pest or weed control at 62 g/ha [1]: 0%; pest or weed control at 62 g/ha (Veronica persica (VERPE)): 0%; pest or weed control at 62 g/ha [2]: 0%; pest or weed control at 62 g/ha [3]: 10%
14 | Cc1cc(-c2cnc(NCc3ccc(F)cc3)nc2C(F)F)on1 [Compound 120] | 0% | 40% | 20% | 30% |  |  |  |  | 
15 | CCN(C)c1ncc(-c2cc(C)no2)c(C(C)C)n1 [Compound 1, N-ethyl-N-methyl-5-(3-methyl-1,2-oxazol-5-yl)-4-(propan-2-yl)pyrimidin-2-amine] | 0% | 0% | 0% | 0% | 0% | 90% | 50% | 70% | 
16 | Cc1cc(-c2cnc(NC3CCCC3)nc2C)on1 [Compound 92] | 60% | 70% | 50% | 90% |  |  |  |  | 
17 | C=COCCCNc1ncc(-c2cc(C)no2)c(C(C)(C)C)n1 [Compound 33] |  |  |  |  | 0% | 0% | 70% | 80% | 
18 | Cc1cc(-c2cnc(NC3CCCCC3)nc2C(F)(F)F)on1 [Compound 125] | 20% | 0% | 50% | 70% |  |  |  |  | 
19 | Cc1cc(-c2cnc(NCc3cccc(C#N)c3)nc2C(C)C)on1 [Compound 97] |  |  |  |  |  |  |  |  | pest or weed control at 62 g/ha [1]: 20%; pest or weed control at 62 g/ha (Veronica persica (VERPE)): 70%; pest or weed control at 62 g/ha [2]: 70%; pest or weed control at 62 g/ha [3]: 50%

Row | SMILES | pest or weed control at 125 g/ha [1] | pest or weed control at 125 g/ha (Veronica persica (VERPE)) | pest or weed control at 125 g/ha [2] | pest or weed control at 125 g/ha [3] | pest or weed control at 500 g/ha [1] | pest or weed control at 500 g/ha (Veronica persica (VERPE)) | pest or weed control at 500 g/ha [2] | pest or weed control at 500 g/ha [3] | other results
20 | Cc1cc(-c2cnc(NCc3ccc(F)cc3)nc2C)on1 [Compound 128] | 30% | 95% | 30% | 95% |  |  |  |  | 
21 | Cc1cc(-c2cnc(N3CCCC(O)C3)nc2C2CC2)on1 (stereo not shown) [Compound 57] |  |  |  |  | 0% | 0% | 50% | 70% | 
22 | Cc1cc(-c2cnc(NCC3CCOCC3)nc2C(C)C)on1 [Compound 109] | 0% | 70% | 0% | 40% |  |  |  |  | 
23 | Cc1cc(-c2cnc(NCc3cccnc3)nc2C(C)(C)C)on1 [Compound 75] |  |  |  |  | 70% | 90% | 40% | 98% | 
24 | Cc1cc(-c2cnc(NCc3ccc(F)cc3)nc2C(F)(F)F)on1 [Compound 127] | 0% | 98% | 60% | 100% |  |  |  |  | 
25 | Cc1cc(-c2cnc(N3CCCCC3)nc2C(C)C)on1 [Compound 56] |  |  |  |  | 10% | 0% | 0% | 70% | 
26 | Cc1cc(-c2cnc(N(C)C3CCCC3)nc2C(C)C)on1 [Compound 9] | 60% | 80% | 60% | 95% |  |  |  |  | 
27 | Cc1cc(-c2cnc(N3CCC(C(N)=O)CC3)nc2-c2ccc(C)o2)on1 [Compound 19] |  |  |  |  |  |  |  |  | pest or weed control at 1000 g/ha ([1]; 1000 g/ha): 0%; pest or weed control at 1000 g/ha (Veronica persica (VERPE); 1000 g/ha): 0%; pest or weed control at 1000 g/ha ([2]; 1000 g/ha): 20%; pest or weed control at 1000 g/ha ([3]; 1000 g/ha): 70%
28 | Cc1cc(-c2cnc(NCc3ccccc3)nc2C(C)C)on1 [Compound 94] |  |  |  |  |  |  |  |  | pest or weed control at 62 g/ha [1]: 10%; pest or weed control at 62 g/ha (Veronica persica (VERPE)): 0%; pest or weed control at 62 g/ha [2]: 80%; pest or weed control at 62 g/ha [3]: 60%
29 | CCN1CCN(c2ncc(-c3cc(C)no3)c(C(C)C)n2)CC1 [Compound 63] |  |  |  |  | 30% | 0% | 50% | 70% | 
30 | Cc1cc(-c2cnc(NCC3COCCO3)nc2C2CC2)on1 (stereo not shown) [Compound 74] |  |  |  |  | 70% | 90% | 80% | 100% | 
31 | Cc1cc(-c2cnc(NCC3CCC3)nc2C(C)C)on1 [Compound 87] | 30% | 70% | 80% | 50% |  |  |  |  | 
32 | Cc1cc(-c2cnc(NC3CC3)nc2C(C)C)on1 [Compound 38] |  |  |  |  | 50% | 100% | 60% | 100% | 
33 | COc1ccccc1CNc1ncc(-c2cc(C)no2)c(-c2ccc(C)o2)n1 [Compound 23] |  |  |  |  | 0% | 80% | 50% | 70% | 
34 | Cc1cc(-c2cnc(NC3CC3)nc2C2CC2)on1 [Compound 84] | 50% | 60% | 90% | 60% |  |  |  |  | pest or weed control at 250 g/ha [1]: 70%; pest or weed control at 250 g/ha (Veronica persica (VERPE)): 100%; pest or weed control at 250 g/ha [2]: 100%; pest or weed control at 250 g/ha [3]: 80%
35 | Cc1cc(-c2cnc(N)nc2C(F)(F)F)on1 [Compound 122] | 0% | 0% | 0% | 20% |  |  |  |  | 
36 | COc1ccc(CNc2ncc(-c3cc(C)no3)c(C3CC3)n2)cc1OC [Compound 52] |  |  |  |  | 40% | 70% | 70% | 80% | 
37 | Cc1cc(-c2cnc(NCc3ccccc3C)nc2C(C)C)on1 [Compound 98] |  |  |  |  |  |  |  |  | pest or weed control at 62 g/ha [1]: 0%; pest or weed control at 62 g/ha (Veronica persica (VERPE)): 80%; pest or weed control at 62 g/ha [2]: 70%; pest or weed control at 62 g/ha [3]: 60%
